Patent US20190125702A1, “Methods and Compositions for the Treatment of Demyelinating Disorders” (Vitality Biopharma, Inc., priority 2016, published 2019)
Entries after “also recorded” stand apart in the source; their conditions may differ.

Legend:
[1] = tested on: E18 rat embryonic cortical co-cultures (MBP fiber length/Olig2 nuclei); test: embryonic cortical cell co-culture myelination assay; format: cell-based; conditions: for EC50: Rattus norvegicus, 192 h, cortical myelination assay, eight days treatment, N >= 2; for myelination in the cortical myelination assay (in words): compound added DIV5, eight days, live axons
Excerpt: Embryonic Cortical Culture Methods: The dissection of E18 rat (Charles River, Wilmington, Mass., USA) cortex is similar to that described previously, [32], [33] with some modifications. Briefly whole cortices from three embryos were collected in a petri dish containing HBSS. After carefully removing the meninges, the tissue was divided into cortical hemispheres, dissected and the non-cortical structures were removed. Cortical tissue was then digested in 7 U/ml papain dissolved in HBSS with 500 U/ml DNase I, and incubated for 30 minutes at 35° C. The enzymatic reaction was terminated with DMEM containing 10% FBS. The tissue was allowed to settle, supernatant was removed and tissue was triturated with a flame-polished glass Pasteur pipette in DMEM/10% FBS, 250 U/ml DNAse I until the tissue was completely dispersed. The dissociated cell suspension was centrifuged at 200×g for 5 minutes and supernatant replaced with plating medium (NB medium with 1× N21 supplement and 2 mM L-glutamine and 1% penicillin-streptomycin). […] Isolated cells were seeded onto 96-well plates pre-coated with poly-D-lysine (10 μg/m1) and laminin (2 ␣/ml) at a density of 20,000 cells/well ([…]). Neurons were allowed to adhere, recover, mature and extend axons for three days. On the fourth day, the plating medium was diluted with an equivolume of myelination medium (MyM), as described in Watkins et al., 2008 [9] with minor modifications (see results). The following day, two-thirds of the medium was replaced with fresh MyM and test compound. The day after establishing the primary culture was defined as day 1 in vitro (DIV1).
Immunofluorescence Staining and Imaging: At the experimental end point, medium was removed leaving 50 μl/well using an ELX405 microplate washer (BioTek, Winooski, Vt., USA). Cells were then fixed for 14 min with paraformaldehyde solution to a final concentration of 4%. Following fixation, plates were washed with 1 ml PBS leaving 50 μl/well using the microplate washer. Cells were then blocked in blocking buffer (10% normal goat serum, 0.1% Triton X-100, antibody buffer (150 mM NaCl, 50 mM Tris Base, 1% BSA, 100 mM L-lysine, 0.004% sodium azide, pH 7.4), and stained with mouse anti-rat MBP antibody and anti-rabbit Olig2 diluted in blocking buffer overnight at 4° C. The cells were washed and incubated with secondary antibodies, and DAPI, 0.3 μM for 1 h at room temperature. After a final wash, 100 μl of PBS was added to each well and plates imaged. Images were captured with a Nikon Eclipse TE-2000-U microscope, Zyla cMOS megapixel camera (ANDOR Technology, Belfast, UK), fitted with an automated stage controlled by NIS Elements AR software 4.0 (Melville, N.Y., USA). An air 10× lens was used to capture four images per well with 16 bit resolution, 2560×2160 pixels. Images for each assay run were captured using identical camera settings. Images were exported as TIFF files for analysis and quantification.
Image Quantification: TIFF files were analyzed using a custom algorithm created with IN Cell Investigator Developer Toolbox (GE Health Sciences, Piscataway, N.J., USA). For each well, four images were analyzed and the data from the duplicate well combined and averaged (total of eight images per test condition). The extent of OL differentiation was defined by the total threshold-selected area of MBP staining×MBP fluorescence intensity in this area divided by the total number of OLs (identified by Olig2 nuclear staining). We referred to this as the “MBP score” or “OL differentiation”. Earlier publications have characterized in vitro myelination as contiguous segments of MBP staining co-localizing with axons, representing the contact and ensheathment of axons with the myelin membrane generated by OLs.

[2] = tested on: purified OPCs; conditions: lead compounds of published studies [2],[3],[4]; cited from earlier work
[3] = tested on: purified OPCs from P7 Sprague-Dawley rat pups; test: acute oligodendrocyte differentiation assay with acutely purified OPCs; format: cell-based; conditions: 4 days culture, MBP staining intensity
Description: Acute Oligodendrocyte Differentiation Assay: OPCs from P7 Sprague-Dawley rat pups were purified by immunopanning and cultured as described. OPCs were plated at 5000 cells/well into pDL-Laminin coated 96-well TC plate wells and centrifuged at 200×g to facilitate cell attachment, survival, and assure even distribution of OPCs. Plated OPCs were pre-incubated for 1-2 hours at 37° C. in 10% CO2 incubator, followed by addition of test compounds in quadruplicate. Controls were added in eight replicate wells, negative control=0.1% DMSO final concentration; positive control=40 ng/ml T3. The day of OPC plating was considered DIV0. On DIV4, cells were fixed, immunostained, and imaged as described below. Minor modifications include blocking cells with 10% normal goat serum (NGS)/0.4% Triton X-100 and staining overnight at 4° C. with rat anti-MBP antibodies diluted in 10% NGS/0.08% Triton X-100. OL differentiation was quantified by IN Cell Developer Toolbox image analysis software which calculated the MBP staining intensity of two images per well. The extent of OL differentiation was defined by the total threshold-selected area of MBP staining×MBP fluorescence intensity in this area divided by the total number of OLs (identified by DAPI nuclear staining).

Row | SMILES | EC50 [1] | myelination in the cortical myelination assay (in words) [1] | further results
1 | N=C(N)NC(=O)c1nc(Cl)c(N)nc1N [Amiloride] | 8.9 µM |  | 
2 | C[C@H]1[C@H](OC(=O)CCC(=O)O)O[C@@H]2O[C@@]3(C)CC[C@H]4[C@H](C)CC[C@@H]1[C@@]24OO3 [Artesunate] | 3.3 µM |  | 
3 | COc1ccc(CC2c3cc(OC)c(OC)cc3CC[N+]2(C)CCC(=O)OCCCCCOC(=O)CC[N+]2(C)CCc3cc(OC)c(OC)cc3C2Cc2ccc(OC)c(OC)c2)cc1OC (stereo not shown) [Atracurium Besylate] | 5.3 µM |  | 
4 | NC(=O)[C@@H](CCC(F)(F)F)N(Cc1ccc(-c2ncon2)cc1F)S(=O)(=O)c1ccc(Cl)cc1 [BMS 708, 163] | 0.067 µM |  | 
5 | C[C@H](NC(=O)Cc1cc(F)cc(F)c1)C(=O)N[C@H](C(=O)OC(C)(C)C)c1ccccc1 [DAPT, N-[N-(3,5-Difluorophenacetyl)-L-alanyl]-S-phenylglycine t-butyl ester] |  | significant dose-dependent increases in myelination | reduction of the number of Olig2+ cells [1]: ~50%; DAPT/DMSO myelination ratio ([1]; 5 days NB/N21 and 8 days MyM plus test compound): 7.7; fiber/MBP score, typically observed ([1]; DAPT treated cultures): > 1.5; promotion of myelination, fold over DMSO ([1]; cultures without exogenously added OPCs): 1.76 fold over DMSO; average DAPT/DMSO Fiber/MBP ratio ([1]; entire NCC library screen, plate controls): 1.61
6 | C[C@H]1O[C@@H](O[C@H]2[C@@H](O)C[C@H](O[C@H]3[C@@H](O)C[C@H](O[C@H]4CC[C@@]5(C)[C@H](CC[C@@H]6[C@@H]5C[C@@H](O)[C@]5(C)[C@@H](C7=CC(=O)OC7)CC[C@]65O)C4)O[C@@H]3C)O[C@@H]2C)C[C@H](O)[C@@H]1O [Digoxin] | 11.3 µM |  | 
7 | CC(=O)O[C@@]12CO[C@@H]1C[C@H](O)[C@@]1(C)C(=O)[C@H](O)C3=C(C)[C@@H](OC(=O)[C@H](O)[C@@H](NC(=O)OC(C)(C)C)c4ccccc4)C[C@@](O)([C@@H](OC(=O)c4ccccc4)[C@H]21)C3(C)C [Docetaxel] | 0.1 µM |  | 
8 | O=S(=O)(NC1CCC(c2cc(F)ccc2F)(S(=O)(=O)c2ccc(Cl)cc2)CC1)C(F)(F)F (stereo not shown) [MRK 560] | 0.082 µM |  | 
9 | CN(Cc1cnc2nc(N)nc(N)c2n1)c1ccc(C(=O)N[C@@H](CCC(=O)O)C(=O)O)cc1 [Methotrexate] | 0.1 µM |  | Olig2+ nuclei expression (in words) ([1]; NCC library screen): very low overall Olig2+ nuclei expression
10 | NC(=O)N1c2ccccc2CC(=O)c2ccccc21 [Oxcarbazepine] | 14.7 µM |  | 
11 | O=c1[nH]c(=O)n(C2CCCO2)cc1F (stereo not shown) [Tegafur] | 2.7 µM |  | 
12 | COc1cc(CNC(=O)CCCC/C=C\C(C)C)ccc1O [Zu-capsaicin] | 4.7 µM |  | 
13 | CN1[C@@H]2CC[C@H]1C[C@@H](OC(c1ccccc1)c1ccccc1)C2 [benztropine] |  | little to no activity; also recorded: no effect on myelination; also recorded: did not promote myelination | OL differentiation in cultures of purified OPCs (published screens) [2]: facilitate OL differentiation; OL differentiation of purified OPCs (in words) [3]: facilitate OL differentiation; also recorded: significant OL differentiation
14 | CN1CCC[C@@H]1CCO[C@](C)(c1ccccc1)c1ccc(Cl)cc1 [clemastine] |  | little to no activity; also recorded: no effect on myelination; also recorded: did not promote myelination | OL differentiation in cultures of purified OPCs (published screens) [2]: facilitate OL differentiation; OL differentiation of purified OPCs (in words) [3]: facilitate OL differentiation; also recorded: significant OL differentiation
15 | C[C@H]1C[C@H]2[C@@H]3CCC4=CC(=O)C=C[C@]4(C)[C@@]3(F)[C@@H](O)C[C@]2(C)[C@@]1(O)C(=O)CCl [clobetasol] |  | no effect on myelination | OL differentiation in cultures of purified OPCs (published screens) [2]: facilitate OL differentiation
16 | Clc1ccc(COC(Cn2ccnc2)c2ccc(Cl)cc2Cl)c(Cl)c1 (stereo not shown) [miconazole] |  | no effect on myelination | OL differentiation in cultures of purified OPCs (published screens) [2]: facilitate OL differentiation
